Columns and labels:
Format in all cases: cell-based
[1] = biological target: T1, L-type calcium channel (LTCC) (Rattus norvegicus, UniProt P22002); assay: FLIPR calcium mobilization assay for L-type calcium channel (HEK293 cells expressing recombinant rat LTCC subunits, or alternatively differentiated A7r5 cells); conditions: calcium mobilization in vitro assay; L-type calcium channel block
T1 construct: The 6.5 kb cDNA encoding the L-type calcium channel α1c subunit was cloned by PCR amplification from rat heart cDNA; expressed in transfected cells; host or cells: HEK293 (ATCC), stably transfected
T1 sequence (P22002 whole entry): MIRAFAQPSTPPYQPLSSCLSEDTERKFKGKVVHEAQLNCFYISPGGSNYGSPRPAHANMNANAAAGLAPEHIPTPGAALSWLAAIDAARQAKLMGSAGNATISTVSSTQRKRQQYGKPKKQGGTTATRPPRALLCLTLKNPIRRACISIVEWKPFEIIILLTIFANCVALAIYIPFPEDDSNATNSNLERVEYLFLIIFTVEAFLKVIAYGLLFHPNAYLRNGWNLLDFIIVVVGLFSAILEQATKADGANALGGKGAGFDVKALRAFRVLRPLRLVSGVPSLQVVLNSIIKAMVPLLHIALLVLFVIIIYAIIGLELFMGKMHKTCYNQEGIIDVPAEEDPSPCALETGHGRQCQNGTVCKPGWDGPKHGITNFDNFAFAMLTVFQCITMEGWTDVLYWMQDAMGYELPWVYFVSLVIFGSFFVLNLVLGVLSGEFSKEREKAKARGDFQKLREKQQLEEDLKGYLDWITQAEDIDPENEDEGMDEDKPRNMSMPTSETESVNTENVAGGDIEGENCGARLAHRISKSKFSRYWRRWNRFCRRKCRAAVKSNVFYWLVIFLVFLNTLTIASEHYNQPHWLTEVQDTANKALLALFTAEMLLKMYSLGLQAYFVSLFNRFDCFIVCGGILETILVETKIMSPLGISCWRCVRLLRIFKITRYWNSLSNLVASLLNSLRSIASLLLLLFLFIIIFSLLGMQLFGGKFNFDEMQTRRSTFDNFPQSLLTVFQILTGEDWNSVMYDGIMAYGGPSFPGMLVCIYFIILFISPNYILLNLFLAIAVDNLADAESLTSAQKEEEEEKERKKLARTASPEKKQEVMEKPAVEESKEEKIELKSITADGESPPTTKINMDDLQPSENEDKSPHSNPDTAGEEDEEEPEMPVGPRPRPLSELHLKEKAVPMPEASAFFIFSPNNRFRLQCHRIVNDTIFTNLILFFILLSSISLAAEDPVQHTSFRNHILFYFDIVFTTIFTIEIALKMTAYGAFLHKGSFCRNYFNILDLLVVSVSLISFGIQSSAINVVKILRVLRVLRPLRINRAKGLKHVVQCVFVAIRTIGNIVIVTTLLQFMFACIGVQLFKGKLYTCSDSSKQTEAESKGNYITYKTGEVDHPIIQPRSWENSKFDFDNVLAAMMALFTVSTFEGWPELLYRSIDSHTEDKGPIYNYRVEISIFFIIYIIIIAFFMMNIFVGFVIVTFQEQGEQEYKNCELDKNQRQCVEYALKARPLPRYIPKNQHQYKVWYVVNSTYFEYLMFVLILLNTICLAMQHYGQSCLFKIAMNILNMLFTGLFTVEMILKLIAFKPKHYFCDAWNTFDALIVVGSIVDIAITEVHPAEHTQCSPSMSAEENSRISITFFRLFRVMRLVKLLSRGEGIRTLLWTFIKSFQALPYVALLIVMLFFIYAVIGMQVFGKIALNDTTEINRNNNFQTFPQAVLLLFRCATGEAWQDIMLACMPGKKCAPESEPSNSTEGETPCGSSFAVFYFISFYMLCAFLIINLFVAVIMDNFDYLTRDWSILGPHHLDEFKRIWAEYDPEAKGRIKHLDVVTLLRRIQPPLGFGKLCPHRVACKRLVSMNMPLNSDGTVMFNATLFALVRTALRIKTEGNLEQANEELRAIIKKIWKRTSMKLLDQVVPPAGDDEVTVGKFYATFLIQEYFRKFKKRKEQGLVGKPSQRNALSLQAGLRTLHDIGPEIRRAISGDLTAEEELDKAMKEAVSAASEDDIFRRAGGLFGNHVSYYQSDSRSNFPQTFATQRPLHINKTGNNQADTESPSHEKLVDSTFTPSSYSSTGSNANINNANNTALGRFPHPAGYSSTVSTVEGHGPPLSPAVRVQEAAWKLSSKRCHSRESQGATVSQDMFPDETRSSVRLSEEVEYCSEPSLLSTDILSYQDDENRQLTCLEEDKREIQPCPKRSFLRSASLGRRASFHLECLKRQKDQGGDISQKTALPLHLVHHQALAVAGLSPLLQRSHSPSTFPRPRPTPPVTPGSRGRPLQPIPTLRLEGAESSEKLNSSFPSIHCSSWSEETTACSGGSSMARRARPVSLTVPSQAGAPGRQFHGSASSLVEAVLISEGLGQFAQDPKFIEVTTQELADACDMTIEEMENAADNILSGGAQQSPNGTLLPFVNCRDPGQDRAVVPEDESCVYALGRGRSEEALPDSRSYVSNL
T1 sequence (P54290 25-944 partner limits assumed): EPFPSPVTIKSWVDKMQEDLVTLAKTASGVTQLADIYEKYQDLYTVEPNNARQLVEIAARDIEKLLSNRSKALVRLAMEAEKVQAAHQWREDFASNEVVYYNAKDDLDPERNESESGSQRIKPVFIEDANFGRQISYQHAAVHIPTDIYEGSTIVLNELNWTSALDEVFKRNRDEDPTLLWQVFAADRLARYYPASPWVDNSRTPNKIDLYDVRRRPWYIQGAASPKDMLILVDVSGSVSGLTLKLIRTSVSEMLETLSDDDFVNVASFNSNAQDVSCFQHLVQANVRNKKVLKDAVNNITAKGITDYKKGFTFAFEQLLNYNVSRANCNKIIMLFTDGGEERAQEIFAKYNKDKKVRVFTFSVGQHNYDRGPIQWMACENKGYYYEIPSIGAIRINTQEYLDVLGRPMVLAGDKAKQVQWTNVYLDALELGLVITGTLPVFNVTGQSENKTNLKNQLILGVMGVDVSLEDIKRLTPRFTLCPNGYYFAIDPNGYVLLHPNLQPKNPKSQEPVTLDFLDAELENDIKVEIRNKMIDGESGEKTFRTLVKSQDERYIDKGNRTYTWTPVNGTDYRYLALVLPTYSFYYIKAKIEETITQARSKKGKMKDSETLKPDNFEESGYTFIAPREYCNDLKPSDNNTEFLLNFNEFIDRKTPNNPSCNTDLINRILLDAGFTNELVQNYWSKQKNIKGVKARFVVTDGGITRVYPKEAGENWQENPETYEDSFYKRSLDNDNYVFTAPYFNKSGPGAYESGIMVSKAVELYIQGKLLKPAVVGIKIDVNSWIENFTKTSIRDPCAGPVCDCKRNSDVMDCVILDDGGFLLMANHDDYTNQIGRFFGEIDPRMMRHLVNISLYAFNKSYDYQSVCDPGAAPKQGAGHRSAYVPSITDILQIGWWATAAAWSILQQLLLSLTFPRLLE
T1 sequence (P54290 945-1091 partner limits assumed): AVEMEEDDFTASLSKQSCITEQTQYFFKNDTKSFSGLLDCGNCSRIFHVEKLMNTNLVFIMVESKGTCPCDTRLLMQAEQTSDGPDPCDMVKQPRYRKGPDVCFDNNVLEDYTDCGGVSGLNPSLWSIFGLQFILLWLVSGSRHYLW
T1 sequence (P54283 whole entry partner): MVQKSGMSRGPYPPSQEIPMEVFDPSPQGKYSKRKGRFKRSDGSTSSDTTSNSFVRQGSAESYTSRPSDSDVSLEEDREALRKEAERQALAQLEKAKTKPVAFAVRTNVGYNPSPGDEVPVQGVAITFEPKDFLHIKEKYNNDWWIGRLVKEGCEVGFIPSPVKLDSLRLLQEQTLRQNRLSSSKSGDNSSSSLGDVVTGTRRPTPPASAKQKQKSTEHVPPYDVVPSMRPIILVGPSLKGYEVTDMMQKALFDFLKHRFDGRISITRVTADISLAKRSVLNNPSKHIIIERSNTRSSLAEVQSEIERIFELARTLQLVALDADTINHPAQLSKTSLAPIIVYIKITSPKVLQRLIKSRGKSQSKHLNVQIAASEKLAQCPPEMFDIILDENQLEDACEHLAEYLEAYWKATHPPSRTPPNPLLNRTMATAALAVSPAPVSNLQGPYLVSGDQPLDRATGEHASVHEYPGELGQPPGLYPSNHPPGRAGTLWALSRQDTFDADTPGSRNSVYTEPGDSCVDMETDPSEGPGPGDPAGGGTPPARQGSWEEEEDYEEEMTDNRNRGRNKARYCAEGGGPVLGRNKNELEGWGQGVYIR
Method: A7r5 (ATCC) cells were maintained and routinely cultured in A7r5 growth medium consisting of Dulbecco's Modified Eagles Medium containing 10% FBS, 100 U/mL penicillin, 100 μg/mL streptomycin, 4 mM L-glutamine, and 0.15% sodium bicarbonate. 80-90% confluent flasks of cells were differentiated using the following differentiation medium: A7r5 Growth Medium plus 1 mM dibutyryl cyclic AMP (Sigma). Cells were differentiated for 8 days by replacing differentiation medium every 2-3 days.
FLIPR Calcium Mobilization Assay for L-type Calcium Channel. One day prior to performing this assay, HEK293 cells stably expressing recombinant rat L-type calcium channel (LTCC) subunits (α1c, α2δ, and β1) are trypsinized, then seeded on poly-D-lysine-coated 96-well clear-bottom black plates (Becton Dickinson, Franklin Lakes, N.J.) at 75,000 cells/well. On the day of the assay, the plates are washed with LTCC wash buffer (127 mM NaCl, 2 mM MgCl2, 700 μM NaH2PO4, 5 mM CaCl2, 5 mM NaHCO3, 8 mM HEPES, 10 mM glucose, pH 7.4), then loaded with 0.1 mL of LTCC wash buffer containing Fluo-4 (3 μM final concentration, Molecular Probes, Eugene, Oreg.). After 1 hour, the cells are washed with 0.1 mL LTCC wash buffer and resuspended in 0.05 mL LTCC assay buffer (same composition as LTCC wash buffer). Plates are then transferred to a FLIPR^96 for assay. The FLIPR measures basal Fluo-4 fluorescence for 15 seconds, then adds 0.05 mL of each compound tested diluted in LTCC assay buffer at final concentrations ranging from about 846 pM to about 17 μM. Fluo-4 fluorescence is then measured for 5 minutes. 0.1 mL KCl agonist dissolved in LTCC assay buffer is then added to the cells to produce a final concentration of 90 mM KCl, and fluorescence is measured for another 45 seconds. Data are collected over the entire time course and analyzed using Excel, Graph Pad Prism, or an in-house regression analysis software.
Alternative FLIPR Calcium Mobilization Assay for L-type Calcium Channel. Alternatively, the following cell line and procedure was used for the FLIPR calcium mobilization assay for L-type calcium channel. One day prior to performing this assay, differentiated A7r5 cells were trypsinized, then seeded on tissue culture treated 96-well clear-bottom black plates (Becton Dickinson, Franklin Lakes, N.J.) at a dilution of 1:1 from a confluent T150 cm^2 flask. On the day of the assay, the plates were washed with A7r5 wash buffer (127 mM NaCl, 2 mM MgCl2, 700 μM NaH2PO4, 5 mM CaCl2, 5 mM NaHCO3, 8 mM HEPES, 10 mM glucose, pH 7.4), then loaded with 0.1 mL of A7r5 wash buffer containing Fluo-4 (3 μM final concentration, Molecular Probes, Eugene, Oreg.). After 1 hour, the cells were washed with 0.1 mL A7r5 wash buffer and resuspended in 0.05 mL A7r5 assay buffer that was composed of A7r5 wash buffer plus 50 μM valinomycin (Sigma). Plates were then transferred to a FLIPR^96 for assay. The FLIPR measured basal Fluo-4 fluorescence for 15 seconds, then added 0.05 mL of each compound tested diluted in A7r5 assay buffer at final concentrations ranging from about 846 pM to about 17 μM. Fluo-4 fluorescence was then measured for 5 minutes. 0.1 mL KCl agonist dissolved in A7r5 assay buffer is then added to the cells to produce a final concentration of 90 mM KCl, and fluorescence was measured for another 45 seconds. Data were collected over the entire time course and analyzed using Excel, Graph Pad Prism, or an in-house regression analysis software.

[2] = biological target: T2, N-type calcium channel (NTCC) (Homo sapiens, UniProt Q00975); assay: FLIPR calcium mobilization assay for N-type calcium channel (differentiated IMR32 cells); set-up: endogenous in cells; host or cells: IMR32 cells (ATCC), differentiated 8 days with dibutyryl cAMP and bromodeoxyuridine; conditions: calcium mobilization in vitro assay; N-type calcium channel block
Method: (§1) Cell maintenance and differentiation. Unless noted otherwise, cell culture reagents were purchased from Mediatech of Herndon, Md. IMR32 cells (American Type Culture Collection, ATCC, Manassas, Va.) were routinely cultured in growth medium consisting of minimum essential medium containing 10% fetal bovine serum (FBS, Hyclone, Logan, Utah), 100 U/mL penicillin, 100 μg/mL streptomycin, 2 mM L-glutamine, 1 mM sodium pyruvate, and 1×MEM non-essential amino acids. 80-90% confluent flasks of cells were differentiated using the following differentiation medium: Growth medium plus 1 mM dibutyryl cyclic AMP (Sigma, St. Louis, Mo.), and 2.5 μM bromodeoxyuridine (Sigma). Cells were differentiated for 8 days by replacing differentiation medium every 2-3 days.
FLIPR Calcium Mobilization Assay for N-type Calcium Channel. One day prior to performing this assay, differentiated IMR32 cells were treated with 1×
CellStripper, and seeded on poly-D-lysine-coated 96-well clear-bottom black plates (Becton Dickinson, Franklin Lakes, N.J.) at 200,000 cells/well. On the day of the assay, the cell plates were washed with IMR32 buffer (127 mM NaCl, 1 mM KCl, 2 mM MgCl2, 700 μM NaH2PO4, 5 mM CaCl2, 5 mM NaHCO3, 8 mM HEPES, 10 mM glucose, pH 7.4), then pre-stimulated with KCl and loaded as follows: 0.05 mL of IMR32 buffer, 0.05 mL of each compound tested diluted in IMR32 buffer containing 20 μM nitrendipine (Sigma), and 0.1 mL KCl dissolved in IMR32 buffer, plus Fluo-4 were added (3 μM final concentration, Molecular Probes, Eugene, Oreg.). Final test compound concentrations ranged from about 846 pM to about 17 μM, final nitrendipine concentration was 5 μM, and final KCl concentration was 90 mM. After 1 hour, the cells were washed twice with 0.05 mL of each compound tested in nitrendipine-containing IMR32 buffer (no KCl or Fluo-4), and then replaced with 0.1 mL of each compound tested in nitrendipine-containing IMR32 buffer. Plates were then transferred to a Fluorimetric Imaging Plate Reader (FLIPR^96, Molecular Devices, Inc., Sunnyvale, Calif.) for assay. The FLIPR measured basal Fluo-4 fluorescence for 315 seconds (i.e., 5 minutes and 15 seconds), then added 0.1 mL KCl agonist dissolved in IMR32 buffer and measured fluorescence for another 45 seconds. Final test compound concentrations on the cells after FLIPR read ranged from about 846 pM to about 17 μM, final nitrendipine concentration was 5 μM, and final KCl concentration was 90 mM. Data were collected over the entire time course and analyzed using Excel, Graph Pad Prism (version 3.02, Graph Pad, San Diego, Calif.), or an in-house non-linear regression analysis software.

[3] = biological target: T2, N-type calcium channel (NTCC); assay: as above; set-up: differentiated IMR32 cells were treated with 1×; endogenous in cells; host or cells: IMR32 cells (ATCC), differentiated 8 days with dibutyryl cAMP and bromodeoxyuridine; conditions: calcium mobilization in vitro assay; N-type calcium channel block
Method: as §1, with “Cells were differentiated for 8 days by replacing differentiation medium every 2-3 days.” left out
CellStripper, and seeded on poly-D-lysine-coated 96-well clear-bottom black plates (Becton Dickinson, Franklin Lakes, N.J.) at 200,000 cells/well. […] Plates were then transferred to a Fluorimetric Imaging Plate Reader (FLIPR^96, Molecular Devices, Inc., Sunnyvale, Calif.) for assay. The FLIPR measured basal Fluo-4 fluorescence for 315 seconds (i.e., 5 minutes and 15 seconds), then added 0.1 mL KCl agonist dissolved in IMR32 buffer and measured fluorescence for another 45 seconds. Final test compound concentrations on the cells after FLIPR read ranged from about 846 pM to about 17 μM, final nitrendipine concentration was 5 μM, and final KCl concentration was 90 mM. […]

Compound	IC50 [1] [µM]	IC50 [2] [nM]	IC50 [3] [µM]
O=C1OC2(CCN(CCCC(c3ccc(F)cc3)c3ccc(F)cc3)CC2)c2ccccc21 [Compound 12, 1,3-Dihydro-1′-[4,4-bis(4-fluorophenyl)butyl]-spiro[isobenzofuran-1,4′-piperidine]-3-one]	3.95	460	–
O=C1OC2(CCN(C(=O)CCC(c3ccc(F)cc3)c3ccc(F)cc3)CC2)c2ccccc21 [Compound 14, 1,3-Dihydro-1′-[4,4-bis(4-fluorophenyl)butanoyl]-spiro[isobenzofuran-1,4′-piperidine]-3-one]	0.31	690	–
O=C1OC2(CCN(CCCN(c3ccc(F)cc3)c3ccc(F)cc3)CC2)c2ccccc21 [Compound 68, 1,3-Dihydro-1′-{3-[N,N-bis(4-fluorophenyl)amino]propyl}-spiro[isobenzofuran-1,4′-piperidine]-3-one]	> 20	230	–
COc1ccc(CN2CCC3(C=Cc4ccccc43)CC2)cc1 [Compound 37, 1-(4-methoxybenzyl)-spiro[piperidine-4,1′-indene]]	5.44	820	–
O=C1Nc2ccccc2C12CCN(CCCC(c1ccc(F)cc1)c1ccc(F)cc1)CC2 [Compound 60, 2,3-Dihydro-1′-[4,4-bis(4-fluorophenyl)butyl]-spiro[indole-3,4′-piperidine]-2-one]	3.8	1050	–
C1=CC2(CCN(CCC=C3c4ccccc4CCc4ccccc43)CC2)c2cccnc21 [1-[2-(10,11-dihydro-5H-dibenzo[a,d]cyclohepten-5-ylmethenyl)ethyl]-spiro[piperidine-4,5′-cyclopenta[b]pyridine]]	3.78	550	–
CC(C)c1ccc(CN2CCC3(C=Cc4cccnc43)CC2)cc1	–	–	10 to 20
O=C1NC2(CCN(CCCC(c3ccc(F)cc3)c3ccc(F)cc3)CC2)c2ccccc21 [2,3-Dihydro-1′-[4,4-bis(4-fluorophenyl)butyl]-spiro[isoindole-1,4′-piperidine]-3-one]	> 20	340	–
O=C(CCC(c1ccc(F)cc1)c1ccc(F)cc1)N1CCC2(CCc3ccccc32)CC1 [Compound 35, 1-[4,4-bis(4-fluorophenyl)butanoyl]-spiro[piperidine-4,1′-indane]]	> 20	4920	–
Fc1ccc(C(CCCN2CCC3(CC2)OCc2ccccc23)c2ccc(F)cc2)cc1 [Compound 42, 1,3-Dihydro-1′-[4,4-bis(4-fluorophenyl)butyl]-spiro[isobenzofuran-1,4′-piperidine]]	2.56	1200	–
COc1ccc(C(=O)N2CCC3(C=Cc4ccccc43)CC2)cc1C(F)(F)F [1-(3-trifluoromethyl-4-methoxybenzoyl)-spiro[piperidine-4,1′-indene]]	5.74	2290	–
O=C1c2ccccc2C2(CCN(CCCC(c3ccc(F)cc3)c3ccc(F)cc3)CC2)N1Cc1ccccc1 [Compound 51, 2-Benzyl-2,3-dihydro-1′-[4,4-bis(4-fluorophenyl)butyl]-spiro[isoindole-1,4′-piperidine]-3-one]	6.39	550	–

From US8193208B2 (Purdue Pharma L.P., priority 2005, dated 2012)
